The source of these data is US9250249B2, “Autophagy and phospholipidosis pathway assays” (Enzo Biochem, Inc., priority 2008, dated 2016).

Broadly, the EC50 is the midpoint of the concentration-response curve.

Each structure is given as a SMILES string.

In assay [1] the test system is U2OS cells. Put plainly: Lipid-Tox fluorescent phospholipid analog-based phospholipidosis assay. It is filed as cell-based, human. To be noted: 24 hours co-incubation with Lipid-Tox dye and drug. How it is done: Many assays of phospholipidosis, including the Lipid-Tox assay (Invitrogen, Carlsbad, Calif.), are based upon co-incubating cells with a fluorescent phospholipid analog for an extended period of time, along with the drug or test agent being evaluated, and then monitoring signal generation in fixed and permeabilized cells. Dye 1 is not a fluorescent phospholipid analog, but instead is a cationic amphiphilic fluorophore tracer. Cells are incubated with the drug or test agent in isolation and then briefly treated with the tracer dye before evaluation in live cells. […] Choloroquine, a prototypical phospholipidosis-inducing agent, and bafilomycin A, an agent well known to induce the accumulation of autophagosomes, were evaluated using both Dye 1 and Lipid-Tox dye-based assays (FIG. 3). […] Cells stained with Lipid-Tox dye (solid triangles dash-dot line) were incubated in the presence of the fluorescent lipid for 24 hours during treatment with the drugs.

Assay [2] has as its system U2OS cells. Put plainly: Fluorescence microplate-based lysosomal perturbation assay (Dye 1 fluorescence), incl. ICCB library screen.
Method: In order to increase throughput and reduce handling time, the fluorescence microscopy-based lysosomal perturbation assay was scaled up to a 96-well microplate plate assay format and analyzed using a fluorescence microplate reader.
Fluorescence intensity of the cells cultured on the 96-well plates was measured using a FLUOstar OPTIMA Multifunction Microplate Reader (BMG LabTech, Offenburg, Germany). […] Fluorescence intensity was expressed as percentage of the vehicle control value.
In the preliminary screen, test agents were employed at a single dose in an effort to identify any potential lysosome-modifying agents.
For assay [3], the system named is U2OS human osteosarcoma cells. Put plainly: Fluorescence microscopy-based lysosomal perturbation assay (Dye 1 staining). It is filed as cell-based. Conditions: U2OS cells pre-treated with drug (chloroquine 8-64 μM, 18 hours), Dye 1 15 min. How it is done: U2OS human osteosarcoma cells were maintained in McCoy's 5a modified medium supplemented with 10% FBS and 100 units/ml penicillin/streptomycin (Invitrogen, Carlsbad, Calif.) in a humidified 37° C., 5% CO2 environment. Cells were allowed to proliferate on glass slides or were seeded into 96-well plates at a density of 2×10^4 cells/well and allowed to attach overnight. The cells were plated such that at the end of the experiment, they reached about 90% confluency.
The fluorescence-based lysosomal perturbation assay was established by first incubating cells cultivated on glass slides for 4-24 hours with chloroquine (8-64 μM final concentration), a well known phospholipidosis-inducing agent. Control cells were incubated with 0.1% (v/v) dimethyl sulfoxide (DMSO), which served as the vehicle control. Cells were then briefly (15 min) incubated with a combination of Dye 1 and Hoechst 33342 dye. Following incubation, cells grown on glass microscope slides were covered with glass coverslips, sealed with nail polish and observed using an inverted Axiovert 200M microscope (Carl Zeiss, Inc., Oberkochen, Germany). Images were acquired with a 63× objective lens (Zeiss).
Cells were subsequently stained with Dye 1 for 15 minutes. Nuclei were counter-stained with Hoechst 33342 dye. In FIG. 1, control U2OS cells are shown in (A), cells pre-treated for 18 hours with 8 μM chloroquine in (B), cells pre-treated for 18 hours with 16 μM chloroquine in (C) and cells pre-treated for 18 hours with 64 μM chloroquine in (D). This staining pattern was also consistently observed for other drugs that are known to induce phospholipidosis, such as chlorpromazine, fluoxetine, pimozide and verapamil (further described in Example 4). […] The ability of Dye 1 to detect vacuole accumulation in the described in vitro cell culture model mimicking Fabry disease strongly supports the present invention and its suitability for the detection of genetically derived lysosomal storage diseases.

The next assay concerns HeLa cells. Put plainly: Fluorescence microscopy lysosomal perturbation assay with Dye 6. It counts as cell-based. Conditions: chloroquine 120 μM for 6 hours, Dye 6 15 min. How it is done: HeLa cells were maintained in Dulbecco's modified Eagles medium supplemented with 10% FBS, 100 units/ml penicillin/streptomycin (Invitrogen, Carlsbad, Calif.) and MEM non essential amino acids in a humidified 37° C., 5% CO2 environment. Cells were allowed to proliferate on glass slides at a density of 2×10^4 cells/well and allowed to attach overnight. The cells were plated such that at the end of the experiment, they reached about 90% confluency.
The fluorescence-based lysosomal perturbation assay was established by first incubating cells cultivated on glass slides for 6 hours with chloroquine (120 μM final concentration), a well known phospholipidosis-inducing agent. Control cells were incubated with 0.1% (v/v) dimethyl sulfoxide (DMSO), which served as the vehicle control. Cells were then briefly (15 min) incubated with Dye 6 at room temperature. Following incubation, cells grown on glass microscope slides were covered with glass coverslips, sealed with nail polish and observed using an Olympus BX51 microscope. Images were acquired with a 40× objective lens. […] The untreated cells gave a low level of fluorescent staining.

For assay [4], the system named is U2OS cells. Put plainly: Multiplexed CF-PE / Dye 1 / Hoechst 33342 microplate assay distinguishing phospholipidosis from autophagy pathway inhibition. It counts as cell-based, human. To be noted: 24 h with CF-PE medium and test compound. As to the method:
For example, CF-PE was suspended in ethanol and diluted in the cell culture medium (McCoy's 5a modified medium, as described in Example 3) to give a solution (CF-PE medium) with final concentration of 50 μM (0.46% ethanol). […] medium was then sonicated and filtered through a […] filter. The prepared was then applied to U2OS cells growing in a 96-well microplate. After an equilibration period of 24 h, the cell culture medium was replaced with CF-PE medium with or without each test compound, and the cells were incubated at 37° C. for an additional 24 h. After incubation, the cells were rinsed with medium and further incubated with the same medium containing Dye 1 and Hoechst 33342 dye for an additional 15 min at 37° C. in 5% CO2 atmosphere.
Fluorescence signal was determined using a standard microplate reader, as described in example 4, except that CF-PE was additionally read at an excitation wavelength of 492 nm and an emission wavelength of 517 nm. […] Generalized cytotoxicity is evident as a substantial decrease in blue signal (≧30%) relative to vehicle-treated control cells.

On to `CCN(CC)CCCC(C)Nc1ccnc2cc(Cl)ccc12` (stereo not shown) [chloroquine], for which, in the assay with U2OS cells [1], the “vacuolation / expansion of lysosomal compartment detected by Lipid-Tox assay” value is given as “induced an expansion in the lysosomal compartment”. Besides, the “vacuolation / expansion of lysosomal compartment detected by Dye 1 assay” value in the assay on U2OS cells [2] (Dye 1 stained post drug incubation) is recorded as “induced an expansion in the lysosomal compartment”. The concentration for a half-maximal effect (EC50) in the assay with U2OS cells [2] (Homo sapiens, 18 h, read-out: EC50 (Dye 1-based assay)) came out at 15 µM. In addition, the “punctate pattern of cytoplasmic staining / levels of Dye 1 in the cells” value in assay [3] is listed as “increased in a dose-dependent manner”. Moreover, the “fluorescence intensity of lysosomal staining with Dye 6” value in the assay with HeLa cells was “increase in fluorescence intensity of lysosomal staining”. Moreover, the “green signal (CF-PE) relative to vehicle-treated controls” value with U2OS cells [4] (ex 492 nm, em 517 nm) is “increased green and red signal”. Moreover, in the assay with U2OS cells [4] (then Dye 1 15 min), the “red signal (Dye 1) relative to vehicle-treated controls” value is “increased green and red signal”.
